Assay results reported in patent US8993616B2, “(aza)indole derivative and use thereof for medical purposes” (Kissei Pharmaceutical Co., Ltd., priority 2007, dated 2015).

Biological target: Xanthine oxidase (from bovine milk, Sigma) (Bos taurus (Bovine), UniProt P80457)
Experiment: Xanthine oxidase inhibitory activity
Type: biochemical
Settings: xanthine substrate, 10 minutes at room temperature, absorbance at 290 nm
Experimental: (1) Preparation of Test Compounds
Test compounds were dissolved in DMSO (Wako) at 40 mM concentration and then diluted to intended concentrations with phosphate-buffered saline (PBS).
(2) Method for Measurement
Xanthine oxidase (from bovine milk, Sigma) was prepared with phosphate-buffered saline (PBS) at 0.02 units/mL, and then the solution was added to 96 well plates at 50 μL/well. In addition, test compounds diluted with PBS were added at 50 μL/well. Xanthine (Wako) at 200 μM prepared with PBS was added at 100 μL/well, and the reaction was conducted for 10 minutes at room temperature. Absorbance at 290 nm was measured using a microplate reader SpectraMax Plus 384 (Molecular device). The absorbance under a condition without xanthine is 0%, and control without test compounds is 100%. Fifty % inhibitory concentration of a test compound (IC50) was calculated (Table 60). Ex. No in the table indicates Example number.

Sequence of Xanthine oxidase (from bovine milk, Sigma) (P80457 whole entry): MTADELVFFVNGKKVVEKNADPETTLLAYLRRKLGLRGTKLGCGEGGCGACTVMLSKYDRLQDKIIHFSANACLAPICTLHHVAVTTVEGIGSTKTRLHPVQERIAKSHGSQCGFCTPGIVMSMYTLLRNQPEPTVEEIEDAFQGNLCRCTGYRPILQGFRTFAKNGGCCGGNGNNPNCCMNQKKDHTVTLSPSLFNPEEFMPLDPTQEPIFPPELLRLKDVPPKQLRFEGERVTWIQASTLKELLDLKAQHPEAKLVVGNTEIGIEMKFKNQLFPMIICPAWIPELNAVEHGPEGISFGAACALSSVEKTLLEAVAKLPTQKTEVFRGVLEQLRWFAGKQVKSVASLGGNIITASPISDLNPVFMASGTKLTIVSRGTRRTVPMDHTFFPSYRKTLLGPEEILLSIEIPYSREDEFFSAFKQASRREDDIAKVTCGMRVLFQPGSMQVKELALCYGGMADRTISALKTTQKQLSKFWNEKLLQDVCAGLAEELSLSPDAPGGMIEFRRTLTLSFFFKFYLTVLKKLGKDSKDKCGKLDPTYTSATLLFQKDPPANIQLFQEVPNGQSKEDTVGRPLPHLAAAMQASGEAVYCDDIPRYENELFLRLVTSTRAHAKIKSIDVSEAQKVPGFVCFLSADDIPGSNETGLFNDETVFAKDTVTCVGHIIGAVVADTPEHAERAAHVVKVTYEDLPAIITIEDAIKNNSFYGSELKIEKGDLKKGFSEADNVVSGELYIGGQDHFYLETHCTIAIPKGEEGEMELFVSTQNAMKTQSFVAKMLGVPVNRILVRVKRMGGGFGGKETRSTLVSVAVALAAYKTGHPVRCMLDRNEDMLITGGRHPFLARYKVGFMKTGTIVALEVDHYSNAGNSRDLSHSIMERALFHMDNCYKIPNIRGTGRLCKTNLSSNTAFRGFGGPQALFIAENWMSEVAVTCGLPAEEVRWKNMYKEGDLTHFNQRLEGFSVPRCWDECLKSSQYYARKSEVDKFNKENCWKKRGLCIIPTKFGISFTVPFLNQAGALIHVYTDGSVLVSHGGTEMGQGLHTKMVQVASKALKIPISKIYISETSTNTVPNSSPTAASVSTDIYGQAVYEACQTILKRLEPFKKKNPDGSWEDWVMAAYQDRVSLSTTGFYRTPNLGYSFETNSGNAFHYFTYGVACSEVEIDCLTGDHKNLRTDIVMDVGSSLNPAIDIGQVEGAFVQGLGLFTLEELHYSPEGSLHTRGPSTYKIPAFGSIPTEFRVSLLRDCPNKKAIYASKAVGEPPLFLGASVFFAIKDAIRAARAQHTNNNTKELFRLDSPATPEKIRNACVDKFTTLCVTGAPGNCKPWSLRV

Structure (SMILES) | IC50
N#Cc1cn(-c2ccc(C(=O)O)c(O)c2)c2ccc(F)cc12 [Example 191] | 3.9 nM
N#Cc1cn(-c2ccc(C(=O)O)c(O)c2)c2cc(F)c(F)cc12 [Example 3, 4-(3-Cyano-5,6-difluoroindol-1-yl)-2-hydroxybenzoic acid] | 6.5 nM
N#Cc1cn(-c2ccc(C(=O)O)c(O)c2)c2cc(F)ccc12 [Example 192] | 4.3 nM
Cc1cc2c(C#N)cn(-c3ccc(C(=O)O)cc3)c2cc1Cl [Example 295] | 9 nM
N#Cc1cn(-c2ccc(C(=O)O)cc2)c2ccc(OCCCN)cc12 [Example 181] | 17.2 nM
N#Cc1cn(-c2ccc(C(=O)O)c(O)c2)c2ccc(OCc3ccccc3)cc12 [Example 200] | 39.4 nM
CN(Cc1ccccc1)C(=O)c1ccc2c(c1)c(C#N)cn2-c1ccc(C(=O)O)cc1 [Example 161] | 49.8 nM
N#Cc1cccc2c1c(C#N)cn2-c1ccc(C(=O)O)c(O)c1 [Example 208] | 6 nM
CCOCCOc1ccc2c(C#N)cn(-c3ccc(C(=O)O)c(O)c3)c2c1 [Example 219] | 8.3 nM
N#Cc1cn(-c2ccc(C(=O)O)cc2)c2ccc(OCC(=O)O)cc12 [Example 170] | 20 nM
CS(=O)(=O)NCCOc1ccc2c(C#N)cn(-c3ccc(C(=O)O)c(O)c3)c2c1 [Example 238] | 8.3 nM
CS(=O)(=O)NCCCOc1ccc2c(C#N)cn(-c3ccc(C(=O)O)c(O)c3)c2c1 [Example 240] | 9.8 nM
N#Cc1ccc2c(c1)c(C#N)cn2-c1ccc(C(=O)O)c(O)c1 [Example 206] | 7.2 nM
CC(C)(C)OC(=O)NCCCOc1ccc2c(c1)c(C#N)cn2-c1ccc(C(=O)O)cc1 [Example 180] | 29 nM
CS(=O)(=O)c1ccc(-c2ccc3c(c2)c(C#N)cn3-c2ccc(C(=O)O)cc2)cc1 [Example 167] | 10.9 nM
N#Cc1cn(-c2ccc(C(=O)O)c(O)c2)c2cc(OCCO)ccc12 [Example 218] | 6 nM
N#Cc1cn(-c2ccc(C(=O)O)cc2)c2cc(CO)ccc12 [Example 184] | 138 nM
N#Cc1cn(-c2ccc(C(=O)O)c(O)c2)c2ccccc12 [Example 188] | 5 nM
COc1ccccc1-c1ccc2c(c1)c(C#N)cn2-c1ccc(C(=O)O)cc1 [Example 157] | 14.1 nM
N#Cc1cn(-c2ccc(C(=O)O)c(O)c2)c2cc(OCCOc3ccccc3)ccc12 [Example 222] | 41.8 nM
N#Cc1cn(-c2ccc(C(=O)O)cc2)c2ccc(OCCOCc3ccccc3)cc12 [Example 175] | 22.2 nM
N#Cc1cn(-c2ccc(C(=O)O)cc2)c2ccc(-c3ccccc3)cc12 [Example 150] | 20.6 nM

The remaining compounds from weak to strong by IC50, led by results:

IC50 | Structure (SMILES)
71.5 nM | CCCCOc1ccc2c(C#N)cn(-c3ccc(C(=O)O)c(O)c3)c2c1 [Example 221]
43.3 nM | N#Cc1cn(-c2ccc(C(=O)O)cc2)c2ccc(C(=O)O)cc12 [Example 29, 4-(5-Carboxy-3-cyanoindol-1-yl)benzoic acid]
41.5 nM | N#Cc1cn(-c2ccc(C(=O)O)c(O)c2)c2cc(OCCNC(=O)OCc3ccccc3)ccc12 [Example 8, 4-[6-(2-Benzyloxycarbonylaminoethyloxy)-3-cyanoindol-1-yl]-2-hydroxybenzoic acid]
16.3 nM | CS(=O)(=O)Nc1ccc2c(c1)c(C#N)cn2-c1ccc(C(=O)O)cc1 [Example 182]
14.4 nM | N#Cc1cn(-c2ccc(C(=O)O)cc2)c2ccc(-c3ccncc3)cc12 [Example 159]
10 nM | Cc1cc2c(C#N)cn(-c3ccc(C(=O)O)c(O)c3)c2cc1F [Example 316]
8.3 nM | N#Cc1cn(-c2ccc(C(=O)O)c(O)c2)c2cc3c(cc12)OCO3 [Example 194]
7.2 nM | CC(=O)c1ccc(-c2ccc3c(c2)c(C#N)cn3-c2ccc(C(=O)O)cc2)cc1 [Example 166]
7.2 nM | N#Cc1cn(-c2ccc(C(=O)O)c(O)c2)c2ccc(OCC(=O)O)cc12 [Example 213]
6.5 nM | CC(=O)NCCCOc1ccc2c(C#N)cn(-c3ccc(C(=O)O)c(O)c3)c2c1 [Example 239]
6 nM | COc1ccc2c(C#N)cn(-c3ccc(C(=O)O)c(O)c3)c2c1 [Example 217]
4.6 nM | N#Cc1cn(-c2ccc(C(=O)O)c(O)c2)c2cc(Cl)c(F)cc12 [Example 193]
4.6 nM | N#Cc1cn(-c2ccc(C(=O)O)c(O)c2)c2cccc(F)c12 [Example 225]

Biological target: human URAT1 (Homo sapiens (Human), UniProt Q96S37)
Sequence (Q96S37 whole entry): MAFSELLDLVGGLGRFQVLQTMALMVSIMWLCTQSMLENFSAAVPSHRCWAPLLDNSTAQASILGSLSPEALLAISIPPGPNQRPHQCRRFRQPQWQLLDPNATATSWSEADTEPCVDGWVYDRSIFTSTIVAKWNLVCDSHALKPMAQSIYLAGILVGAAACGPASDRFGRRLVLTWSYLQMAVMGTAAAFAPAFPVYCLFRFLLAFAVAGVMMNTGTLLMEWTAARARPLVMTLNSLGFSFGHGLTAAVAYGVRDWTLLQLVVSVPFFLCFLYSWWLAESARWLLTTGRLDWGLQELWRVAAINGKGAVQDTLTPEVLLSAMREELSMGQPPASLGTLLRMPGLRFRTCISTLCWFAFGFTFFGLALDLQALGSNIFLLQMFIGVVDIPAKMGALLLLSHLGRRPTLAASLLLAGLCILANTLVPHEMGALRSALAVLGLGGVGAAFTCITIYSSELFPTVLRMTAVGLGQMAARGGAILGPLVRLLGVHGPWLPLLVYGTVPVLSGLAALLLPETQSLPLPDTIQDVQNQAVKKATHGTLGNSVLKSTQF
Experiment: Inhibitory activity of uric acid transport with human URAT1 expressing cells
Type: cell-based
Settings: COS-7; 10 μM test compound; 14C-labeled uric acid uptake in COS7 cells transiently expressing human URAT1, 5 minutes
Experimental: (1) Preparation of Transiently Human URAT1 Expressing Cells
Full length human URAT1 cDNA (NCBI Accession No. NM_144585) was subcloned into expression vector, pcDNA3.1 (Invitrogen). Human URAT1 expression vector was transfected into COS7 cells (RIKEN CELL BANK RCB0539) using Lipofectamine 2000. COS7 cells were cultured in collagen-coated 24 well plates (Asahi Techno Glass) at 2×10^5/well in D-MEM culture medium (Invitrogen) containing 10% fetal bovine serum (Sanko Junyaku) for 2 hours at 37° C. under the condition of 5% CO2. For 1 well, 2 μL of Lipofectamine 2000 was diluted in 50 μL of OPTI-MEM (Invitrogen) and allowed to stand at room temperature for 7 minutes (hereinafter referred to as Lipo2000-OPTI). For 1 well, 0.8 μg of human URAT1 expression vector was diluted in 50 μL of OPTI-MEM (Invitrogen) and combined gently with Lipo2000-OPTI. After standing at room temperature for 25 minutes, the mixture was added to COS7 cells at 100 μL/well. […]
All tests were performed on hot-plate at 37° C. […] After mixing, the radioactivity was counted in a liquid scintillation counter (PerkinElmer). The radioactivity in COST cells not transfected with URAT1 expression vector was also counted under the same condition as control. […]
• A: Radioactivity in control • B: Radioactivity in the case of addition of test compounds • C: Radioactivity in COST cells not transfected with URAT1 expression vector

inhibition at 10 µM | Structure (SMILES)
47% | N#Cc1cn(-c2ccc(C(=O)O)c(O)c2)c2cc(Cl)c(F)cc12 [Example 193]
64% | N#Cc1cn(-c2ccc(C(=O)O)c(O)c2)c2cc3c(cc12)OCO3 [Example 194]

System: not listed separately
Experiment: Serum hypouricemic effect
Type: in vivo
Settings: 3 mg/kg orally, overnight fasted male CD (SD) IGS rats, 2 hours after administration
Experimental: (1) Method for Measurement
Test compounds at 3 mg/kg suspended in 0.5% methylcellulose solution were administered orally to overnight fasted male CD (SD) IGS rats (5-week-old, Charls River Japan). At 2 hours after administration, blood was collected under ether anesthesia from abdominal aorta, and serum was separated according to general method. Serum uric acid values were determined by use of uric acid measurement kit (Uric acid C-Test Wako: Wako), and percent decrease in uric acid was calculated according to the formula described below.
Percent decrease in uric acid (%)=(Serum uric acid values in control animals—Serum uric acid values in animals administered test compounds)×100/Serum uric acid values in control animals

Structure (SMILES) | Percent decrease in uric acid (hypouricemic effect)
N#Cc1cn(-c2ccc(C(=O)O)c(O)c2)c2ccc(F)cc12 [Example 191] | over 60%
N#Cc1cn(-c2ccc(C(=O)O)c(O)c2)c2cc(F)c(F)cc12 [Example 3, 4-(3-Cyano-5,6-difluoroindol-1-yl)-2-hydroxybenzoic acid] | over 60%
N#Cc1cn(-c2ccc(C(=O)O)c(O)c2)c2cc(F)ccc12 [Example 192] | over 60%
N#Cc1cn(-c2ccc(C(=O)O)c(O)c2)c2ccccc12 [Example 188] | over 60%
